Laboratory results taken from patent publication US20240279202A1 (NURIX THERAPEUTICS, INC., priority 2021, published 2024).

What was measured:
[1] = Mouse PK analysis (blood/plasma concentration after oral administration); assay type: in vivo; details: mice; for concentration at 6 h: read-out: Cal. Conc. Total (μM) 6 h
Method: Compounds 1, 3, 7, and 42 were formulated and administered at 90 mg/kg to mice by oral gavage (PO). Blood was collected at defined time points (after 1, 2, and 6 hours) after compounds administration to determine PK parameters. Concentration increased through 6 hours. Six hours later mice were sacrificed and splenocytes were isolated and used to prepare protein lysates. Total protein levels were determined in the lysates using the BCA assay according to standard methods. Equal amounts of protein were then analyzed by Western blot to determine the level of ITK expression in each sample. ITK band intensities were measured using Alpha View software and the percent of ITK remaining in each test animal was determined relative to the mean of ITK levels in vehicle control samples.
Compounds 16, 17, and 18 were administered to mice orally. After 6 hours or 24 hours, splenocytes cells were harvested. ITK was evaluated by Western blotting. Plasma concentrations were determined by LC/MS/MS. Plasma samples were protein precipitated by addition of 100 μl of acetonitrile containing 50 ng/ml of internal standard. The resulting mixture was vortexed and centrifuged at 4000 RPM for 5 minutes. An aliquot of the resultant supernatant (75 μl) was added to 75 μl of 0.1% formic acid in water to constitute the final sample for injection. Samples were injected on a Shimadzu Exion LC Binary Gradient AD Pump HLPC system connected to a Sciex QTRAP 6500+mass spectrometer. Five μl of sample was injected onto a Waters Acquity UPLC BEH C18 column 130A (2.1×30 mm, […]) at 40° C. utilizing a flow rate of 700 μl/minute. Mobile Phase A was 0.1% formic acid in water and mobile phase B was 0.1% formic acid in acetonitrile. A linear gradient of 15-95% B over 1.0 minute was used. The mass spectrometer was operated in positive ion electrospray mode with multiple reaction monitoring for maximum sensitivity. Sciex Analyst software (version 1.6.3) was used for LC/MS/MS instrument control and acquisition. Compound concentration was determined against a standard curve of internal standard versus compound peak area ratio. Noncompartmental PK parameters were determined using […] software (version 8.2.0.4383) from Certara. Plasma concentrations from the LC/MS/MS analyses, dose, route of administration, and desired units were utilized for PK parameter calculations. […] FIG. 4C provides the concentration over time of compound 17 following in vivo oral administration in the 6 hour and 24 hour assays.
Cmax, Tmax and AUClast were all calculated using a WinNonLin Phoenix 64 v 8.2.0.4383. Using non-compartmental analysis, Tmax, Cmax and AUClast were determined as follows: • Tmax—Time of maximum observed concentration. • Cmax—Maximum observed concentration, occurring at time Tmax, as defined above. • AUClast—Area under the curve from the time of dosing to the time of the last measurable (positive) concentration (Tlast).

ITK = target: T1, ITK (Homo sapiens, UniProt Q08881); experiment: ITK degradation MSD (Meso Scale Discovery) assay; assay type: cell-based; parameters: either human Jurkat (Clone E6-1 ATCC TIB-152) or Motl4 (ATCC CRL-1552), were plated; endogenous in cells; host or cells: Jurkat clone E6-1 (ATCC TIB-152) or Molt4 (ATCC CRL-1552); details: Jurkat or Molt4 cells, 4 or 6 hrs
T1 sequence (Q08881 1-620): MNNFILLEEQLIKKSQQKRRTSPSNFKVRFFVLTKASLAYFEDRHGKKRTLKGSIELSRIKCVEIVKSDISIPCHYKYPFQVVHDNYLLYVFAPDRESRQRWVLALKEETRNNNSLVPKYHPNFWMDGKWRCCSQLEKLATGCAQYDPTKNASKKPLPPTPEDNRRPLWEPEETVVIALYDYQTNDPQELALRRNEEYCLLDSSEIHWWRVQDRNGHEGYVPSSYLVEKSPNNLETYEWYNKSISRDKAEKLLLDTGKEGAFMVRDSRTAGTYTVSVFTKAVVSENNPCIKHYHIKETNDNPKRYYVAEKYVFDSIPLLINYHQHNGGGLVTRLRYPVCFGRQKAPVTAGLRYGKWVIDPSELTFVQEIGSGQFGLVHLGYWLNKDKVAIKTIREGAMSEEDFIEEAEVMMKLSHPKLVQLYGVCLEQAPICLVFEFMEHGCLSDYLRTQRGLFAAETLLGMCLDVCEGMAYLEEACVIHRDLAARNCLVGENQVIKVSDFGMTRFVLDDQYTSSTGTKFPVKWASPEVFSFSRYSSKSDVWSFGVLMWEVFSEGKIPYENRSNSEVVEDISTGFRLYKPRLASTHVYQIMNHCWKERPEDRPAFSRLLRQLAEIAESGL
Method: ITK Degradation MSD (Meso Scale Discovery) Assay Compound dilution series (7-point, 5 fold dilutions in DMSO, rows B-H with replicate in Column 1⁄2, 3⁄4, 5⁄6, 7,8, at 2000× the final required concentrations were prepared in 96 well plates (Falcon, cat. no. 353077). Row A, Column 1-8 were control DMSO. The 2000× solutions ranged from 2 mM to 128 nM (final assay concentration range 1 μM to […]). The 2000× solutions were added to cells in […], for a final DMSO concentration of 0.5% and final assay compound concentration of 1×. For the cells, either human Jurkat (Clone E6-1 ATCC TIB-152) or Motl4 (ATCC CRL-1552), were plated at 1×10^6 cells/mL, 100 μL/well ([…]) in complete RPMI (10% FBS, 1% L-glutamine). Cells were incubated for 4 or 6 hrs at 32° C./6% CO2. Following incubation, plates were centrifuged at 1200 rpm for 5 min. supernatant was removed and 50 μL of cell lysis buffer ((MSD Tris lysis buffer (R60TX), Complete Mini EDTA-free protease inhibitor (Sigma 11836170001), Protease Inhibitor Cocktail (Sigma, P2714), Phosphatase Inhibitor Cocktail 2 and 3 (Sigma, P5726 and P0044), and Benzonase (Sigma, E1014)) was added to each well. Plates were sealed and shook at 4° C. for 30 min. Plates were centrifuged and 45 μL was removed for plate assays. Assay plate preparation: Meso Scale Discovery (MSD) multi-array sm spot 96 well plates (Goat anti-Rabbit L^45-RA), were blocked with 3% BSA blocking buffer (3% Bovine Serum Albumin (Sigma A3059)+TBS 0.2% Tween-20) for 1 hr with gentle rocking at room temperature. Plates were then washed with 200 μL of 1× TBST (TBS 0.2% Tween-20) 3 times. After last wash, liquid was removed and 50 μL per well of capture antibody (abcam ITK Y402-ab32507) was added to plates at a 1:1000 dilution in blocking buffer (above). Plates were sealed and rocked at room temperature for 2 hrs. Plates were then washed 3 times with 200 μL of 1× TBST. After last wash, liquid was removed and 45 μL of cell lysate (from above) was added to each plate. Plates were sealed and rocked overnight at 4° C. Next day, cell lysates were removed, and assay plates were washed 3 times with 200 μL of 1× TBST. After last wash, liquid was removed and detection antibody (CST ITK (2F12) #2380) was added at 50 μL per well at a dilution of 1:1000 in blocking buffer. Plates were sealed and rocked at room temperature for 2 hrs. Plates were washed 3 times with 200 uL of 1× TBST. After last wash, liquid was removed, MSD Mouse anti-Rabbit sulfo tag (R32AC-1) was diluted to 1:1000 in blocking buffer. 50 μL was added to each well on the plate. Plates were sealed and incubated at room temperature for 1 hr. Plates were washed 3 times with 200 μL of 1× TBST. After last wash, liquid was removed and 150 μL of 1× MSD Read Buffer T ([…]) was then added to each well for ECL read out. For reading ECL signal, plate is read on a Meso Scale Discovery (MSD) MESO Sector S 600 plate reader. Percent ITK in then calculated as described below. Percent ITK remaining per sample was calculated as follows: [formula] Using Graphpad Prism, % ITK remaining values were plotted as a function of compound concentration. To determine DC50 and Dmax values, resulting curves were fit to the Prism curve-fitting equation “log(inhibitor) vs response-Variable slope (four parameters)” (reported best fit value IC50 used as DC50).

concentration at 2 h ([1]; mouse, plasma, oral, 90 mg/kg, 2 h, read-out: Cal. Conc. Total (μM) 2 h) [µM]	concentration at 6 h ([1]; mouse, plasma, oral, 90 mg/kg) [µM]	DC50 (ITK) [nM]	Dmax (ITK) [%]	Cal. Conc. Total (μM) 2 h ([1]; 2 h)	Structure (SMILES)
0.0046	0.0024	0.2	84	–	C[C@@]12Cc3[nH]nc(C(=O)Nc4cnn([C@H](c5ccccc5)C5CN(C(=O)C6CCN(c7ccc8c(c7)C(=O)N(C7CCC(=O)NC7=O)C8=O)CC6)C5)c4)c3C[C@@H]1C2(F)F (stereo partly drawn) [Compound 38, (4aS,5aR)-N-(1-((1S)-(1-(1-(2-(2,6-dioxopiperidin-3-yl)-1,3-dioxoisoindolin-5-yl)piperidine-4-carbonyl)azetidin-3-yl)(phenyl)methyl)-1H-pyrazol-4-yl)-5,5-difluoro-5a-methyl-1,4,4a,5,5a,6-hexahydrocyclopropafindazole-3-carboxamide]
–	0.009	–	46	BQL	C[C@@]12Cc3[nH]nc(C(=O)Nc4cnn([C@H](c5ccccc5)C5CN(C(=O)C6CCN(c7ccc(C(=O)NC8CCC(=O)NC8=O)nc7)CC6)C5)c4)c3C[C@@H]1C2(F)F (stereo partly drawn) [Compound 40, (4aS,5aR)-N-(1-((1S)-(1-(1-(6-((2,6-dioxopiperidin-3-yl)carbamoyl)pyridin-3-yl)piperidine-4-carbonyl)azetidin-3-yl)(phenyl)methyl)-1H-pyrazol-4-yl)-5,5-difluoro-5a-methyl-1,4,4a,5,5a,6-hexahydrocyclopropa[f]indazole-3-carboxamide]
